Assay results: patent US20030109462A1, “Novel naringenin derivatives and use thereof” (Japan Science and Technology Corporation, priority 2001, published 2003)
“Also recorded” adds a separate entry of the source.

Legend:
[1] = tested on: cowpea weevil (C. maculatus); test: Insecticidal test on artificial beans, cowpea weevil; type: in vivo, Callosobruchus maculatus; conditions: cowpea weevils
Protocol: (§1) These two species of bean weevils were cultured in the same way. In a 9 cm Petri dish containing 300 mungbean seeds, was placed ten adults of bean weevil and egg production was induced. After egg production, the adults were removed and cultured in a thermostatically controlled incubator at 60% humidity and 30° C. After 25 to 30 days from the egg production, the adults emerged. The emerged adults were used in the test for insecticidal activity.
To 1 g of the cotyledon powder of mungbean was added a small quantity of water to make bean-like solid material (about 0.25 g), which was freeze-dried. This material was called artificial bean (mungbean 100%) and used in the test. […]
One artificial seed each of artificial beans in this test was placed in a 9 cm Petri dish, on which the adults of azuki bean weevils or cowpea weevils shortly after the emergence were put and induced to lay eggs. […] The number of eggs laid on the artificial beans was recorded, and the number of the adults that emerged from the artificial beans was continuously recorded for up to 50 days after the egg production to calculate the rate of emergence. The artificial beans on which no emergence was recorded by the 50th day after eggs were laid were split with a pair of forceps and checked as to whether there was any larvae in the artificial seed. […]

[2] = tested on: two species of bean weevils: azuki bean weevil (Callosobruchus chinensis) and cowpea weevil (C. maculatus); test: Insecticidal test on artificial beans, one result stated for both bean weevil species; type: in vivo
Protocol: Two species of bean weevils, i.e., azuki bean weevil (Callosobruchus chinensis) and cowpea weevil (C. maculatus) were employed. Cowpea weevil was obtained from Kasetsart University, Thailand, under an import license from the Plant Quarantine Office of Japan and subcultured.
as §1
(§2) To 1 g of the cotyledon powder of mungbean was added a small quantity of water to make bean-like solid material (about 0.25 g), which was freeze-dried. This material was called artificial bean (mungbean 100%) and used in the test.
(§3) The artificial beans (mungbean 100%) were placed in a 9 cm Petri dish, on which was then put the adults shortly after their emergence and eggs were laid on the artificial seeds. The culture environment was fixed at a temperature of 30° C. and a humidity of 60%. After a lapse of 25 to 30 days from the egg production, the adults normally emerged from the artificial beans (mungbean 100%). Thus, it became clear that the bean weevils can utilize the artificial beans for their egg production and emergence, and it was confirmed that the artificial beans are useful in a test of insecticidal activity for bean weevils.
(§4) One artificial seed each of artificial beans in this test was placed in a 9 cm Petri dish, on which the adults of azuki bean weevils or cowpea weevils shortly after the emergence were put and induced to lay eggs. After egg production, the adults were cultured in an incubator fixed at 30° C. and 60% humidity. The number of eggs laid on the artificial beans was recorded, and the number of the adults that emerged from the artificial beans was continuously recorded for up to 50 days after the egg production to calculate the rate of emergence. The artificial beans on which no emergence was recorded by the 50th day after eggs were laid were split with a pair of forceps and checked as to whether there was any larvae in the artificial seed. This experiment, the insecticidal test on the artificial beans, was repeated 4 times.
(§5) The value represented by the weight (g) of the artificial beans which can be prepared from the total weight of rice bean seed powder according to the minimum lethal concentration was regarded as the total activity of the rice bean seed powder. (The value derived by dividing the total weight of rice bean seed powder by the minimum lethal concentration)
(§6) Moreover, the total activity for 1 g of the rice bean seed powder was calculated as specific activity (units/g).
(§7) Insecticidal activity was observed by calculating total activity and specific activity under the same conditions and following the same procedure as in Experiment 1, except that the extract obtained in each step of purification was used in place of the seed powder of rice bean.

[3] = tested on: larva of giant tobacco budworm (Heliothis obsoleta Fabricius); conditions: cited from earlier work
[4] = tested on: azuki bean weevil (Callosobruchus chinensis); test: Insecticidal test on artificial beans, azuki bean weevil; type: in vivo
Protocol: as §1, §2, §3, §4, §5, §6, §7

[5] = Table 2, purification without silica gel, two species of bean weevils
[6] = Table 1, steps from silica gel chromatography on, activity to azuki bean weevils

| SMILES | insecticidal activity (in words) [1] | Specific activity [2, 5] [units/g] | Total activity [2, 5] [units] | rate of emergence ([2]; artificial beans containing 0.05%, 0.1%, or 0.2% of the 5th peak, both species) | rate of emergence ([2]; artificial beans containing 0.1% of the 5th peak, two species) [%] | rate of emergence ([2]; artificial beans containing 0.2% of the 5th peak, two species) [%] | insecticidal activity (in words) ([2]; azuki bean weevils and cowpea weevils) | minimum lethal concentration ([2]; concentration in artificial beans required for emergence rate 0%, both weevil species) [%] | insecticidal effect (in words) [3] | Specific activity [4, 6] [units/g] | Total activity [4, 6] [units] | rate of emergence ([4]; artificial beans containing 0.05%, 0.1%, or 0.2% of the 7th peak, azuki bean weevils) | rate of emergence ([4]; artificial beans containing 0.1% of the 7th peak) [%] | rate of emergence ([4]; artificial beans containing 0.2% of the 7th peak) [%] | insecticidal activity (in words) ([4]; azuki bean weevils) | minimum lethal concentration ([4]; concentration in artificial beans required for emergence rate 0%, azuki bean weevils) [%] |
| --- | --- | --- | --- | --- | --- | --- | --- | --- | --- | --- | --- | --- | --- | --- | --- | --- |
| O=C1C[C@H](c2ccc(O)cc2)Oc2cc(O)c([C@@H]3O[C@H](CO)[C@@H](O)[C@H](O)[C@H]3O)c(O)c21 [6-C-β-D-glucosyl-(R)-naringenin] | insecticidally active | 1000.0 | 8.0 | low | 0 | 0 | insecticidal substance active to azuki bean weevils and cowpea weevils | 0.1 |  |  |  |  |  |  |  |  |
| O=c1cc(-c2ccc(O)c(O)c2)oc2cc(O)c([C@@H]3O[C@H](CO)[C@@H](O)[C@H](O)[C@H]3O)c(O)c12 [6-C-β-D-glucosyl-luteolin] |  |  |  |  |  |  |  |  | insecticidal effect |  |  |  |  |  |  |  |
| O=C1C[C@H](c2ccc(O)cc2)Oc2c1c(O)cc(O)c2[C@@H]1O[C@H](CO)[C@@H](O)[C@H](O)[C@H]1O [8-C-β-D-glucosyl-(R)-naringenin] | only to azuki bean weevils |  |  |  |  |  |  |  |  | 1000.0 | 2.0 | low | 0 | 0 | insecticidal substance active to azuki bean weevils; also recorded: shows insecticidal activity | 0.1 |
